Columns and labels:
[1] = test system: SVMP activity of E. ocellatus, E. carinatus, B. asper and B. arietans venoms; test: In vitro kinetic fluorogenic SVMP assay (Study 2); type: biochemical
Source text: FIG. 10. […] (A) SVMP activities of the five viper venoms quantified by fluorogenic assay. The data presented represent mean measurements and SEMs of area under the curves of fluorescent arbitrary units taken from three independent experimental runs. EOC, E. ocellatus; ECAR, E. carinatus; BAS, Bothrops asper, BAR, Bitis arietans; DRUS, Daboia russelii. (B) The effectiveness of metal chelators and peptidomimetic hydroxamate inhibitors at inhibiting the SVMP activity of the various viper venoms. Drug concentrations from 150 μM to 150 nM (highest to lowest dose tested) are presented. The data is expressed as percentage of the venom-only sample (100%, top dashed line). The negative control is presented as an interval (bottom dashed lines) and represents the values recorded in the PBS-only samples (expressed as percentage of venom activity), where the highest and the lowest values in each set of independent experiments are depicted. […] All data represent triplicate independent repeats with SEMs, where each technical repeat represents the mean of n≥2 technical replicates.
We used an in vitro kinetic fluorogenic assay^28 to assess the SVMP bioactivity of each venom and its inhibition by varying concentrations of the four SVMP-inhibitors.
The SVMP assay measuring metalloproteinase activity and the plasma assay measuring coagulation in the presence or absence of venoms and inhibitors were performed as previously described^28. The SVMP assay kinetically measured cleavage of a quenched fluorogenic substrate (ES010, R&D Biosystems) by venom in the presence or absence of inhibitors.
Briefly, 10 μl of the substrate (supplied as a 6.2 mM stock) was used per 5 ml reaction buffer (150 mM NaCl, 50 mM Tris-CI pH 7.5). Reactions consisted of 10 μl of venom±inhibitors in PBS and 90 μl of substrate. Venoms were used at 1 μg/reaction and final inhibitor concentrations ranged from 150 μM to 150 nM. Samples were preincubated for 30 min at 37° C. and pipetted in triplicate into 384-well plates (Greiner). Thereafter, data was collected on an Omega FLUOstar (BMG Labtech) instrument at an excitation wavelength of 320 nm and emission wavelength of 405 nm at 25° C. for 1 h. The areas under the curve (AUCs) in the 0-40 min interval were calculated for each sample using MARS data analysis software v3.31 (BMG Labtech); this time point was chosen as the time where all fluorescence curves had reached a plateau (maximum fluorescence). For comparing venom-only samples, the means of at least three independent experimental runs for each condition, expressed as AUCs (n≥3), were plotted at each inhibitor concentration with standard error of the mean (SEM). To determine inhibitor efficacy, the AUCs for each of the samples that consisted of venom+inhibitors were transformed and expressed as percentages of the venom-only sample (where the venom was 100%). The negative control (PBS only) was also expressed relative to the venom, and the variation in background was presented as an interval delineated by the lowest and highest values in the PBS-only samples across concentrations and inhibitors for a specific venom. […] However, only the latter two concentrations were sufficiently depleted of DMSO for viable use in the assay.

[2] = test system: procoagulant activities of viper venoms (E. ocellatus, E. carinatus, B. asper, D. russelii); test: Plasma clotting assay, neutralization of procoagulant venom activity; type: biochemical; conditions: range across all venoms, 100 ng venom, bovine plasma; read-out: IC50, inhibition of procoagulant activity
Source text: FIG. 11. SVMP-inhibitors neutralize the in vitro procoagulant activities of several geographically distinct viper venoms. […] The data presented represents the maximum clotting velocity, calculated as the maximum of the first derivative of each clotting curve, from triplicate independent repeat experiments with SEMs, where each technical repeat represents the mean of n≥2 technical replicates. EOC, E. ocellatus; ECAR, E. carinatus; BAS, Bothrops asper, BAR, Bitis arietans; DRUS, Daboia russelii. (B) Neutralization of procoagulant venom activity by four SVMP-inhibitors across four drug concentrations (150 μM to 150 nM). The data is expressed as the maximum clotting velocity at each dose. The negative (PBS) and positive (venom-only) controls are presented as intervals (bottom dashed and top dashed lines, respectively), with the latter representing the mean maximum clotting velocity in these samples±SEM. The data represent triplicate independent repeats with SEMs, where each technical repeat represents the mean of n≥2 technical replicates. Note the different y-axis scales.
Since SVMPs are key toxins associated with causing coagulopathy, we next investigated whether the same peptidomimetic and metal chelating inhibitors could also neutralize the procoagulant bioactivities of viper venoms. To do so, we used a validated kinetic absorbance-based assay monitoring plasma clotting^35 in the presence or absence of venoms and inhibitors (FIG. 11).
(§1) We used a previously developed plasma clotting assay^35 to measure venom-induced coagulation. Briefly, 100 ng of each venom was incubated at 37° C. for 30 min in the presence or absence of inhibitors (150 μM to 150 nM final concentrations). The final reaction consisted of 10 μl venom±inhibitors in PBS, 20 μl 20 mM CaCl2), and 20 μl citrated bovine plasma (VWR). The samples were pipetted in triplicate into 384-well plates, and absorbance monitored at 595 nm for 2 h at 25° C. on an Omega FLUOstar instrument. We calculated the maximum clotting velocity of each of the curves as per clot waveform analysis^67, by calculating the maximum of the first derivative. The means of at least three independent experimental runs for each condition were plotted at each inhibitor concentration with SEMs.

[3] = test system: Echis ocellatus venom; test: Murine preincubation (co-incubation) model of venom lethality, intravenous, with TAT ELISA; type: in vivo, CD-1 mice; conditions: 45 μg venom (2.5×LD50) preincubated 30 min at 37° C. with 60 μg of each drug, i.v., 6 h monitoring, n=5
Protocol: The intravenous median lethal dose (venom LD50) for E. ocellatus (Nigeria) of 17.85 μg per mouse was previously determined. Mice were challenged with 45 μg of E. ocellatus venom (2.5×the intravenous LD50 dose) in a refined version of the World Health Organization-recommended antivenom efficacy experiments. Groups of five male 18-22 g CD-1 mice (Charles River, UK) received experimental doses that consisted of either (a) venom only (2.5×LD50 dose), (b) venom and drug (60 μg) or (c) drug only. All experimental doses were prepared to a volume of 200 μl in PBS and incubated at 37° C. for 30 mins prior to their intravenous injection via the tail vein. Animals were monitored for 6 hours and euthanized upon observation of humane endpoints (seizure, pulmonary distress, paralysis, hemorrhage). Deaths, time of death, and survivors were recorded; where “deaths/time of death” represents the implementation of euthanasia based on the defined humane endpoints.
The same murine preincubation model was used to assess the efficacy of distinct toxin family inhibiting drugs in comparison with a drug combination. […] All experimental doses were prepared to a volume of 200 μl in PBS and incubated at 37° C. for 30 min prior to their intravenous injection via the tail vein. Animals were monitored for 6 h, and euthanized via rising concentrations of CO2 upon observation of previously defined humane end points that are predicators of lethality (e.g., seizure, pulmonary distress, paralysis, hemorrhage). Deaths, time of death, and survivors were recorded; where death/time of death represents the implementation of euthanasia based on defined humane end points.
Strong drug hits, those defined as inhibiting >80% of the venom activity in the previously described in vitro metalloproteinase assay (FIG. 1), were next progressed into murine preclinical efficacy studies, to assess their ability to prevent venom-induced lethality in vivo. We used an established in vivo model of envenoming to test the efficacy of the seven snake venom metalloproteinase toxin inhibitors identified. This model consisted of the preincubation of the test drug with venom, followed by intravenous injection of the mixture into groups of five male CD-1 mice (18-20 g) via the tail vein followed by 6 hour monitoring, and is based on principles laid out in the gold standard method of preclinical efficacy recommended by the World Health Organization.
We used an established in vivo model of envenoming^41,42 to test the efficacy of small molecule toxin inhibitors. […]

[4] = test system: SVSP activity of viper venoms; test: Chromogenic SVSP (serine protease) assay; type: biochemical
Source text: FIG. 13. Nafamostat inhibits the in vitro serine protease activities of several geographically distinct viper venoms. (A) The serine protease (SVSP) activity of five viper venoms expressed as the rate (ΔAbs/time/μg venom) of substrate consumption determined by kinetic chromogenic assay. The data represents triplicate independent repeats with SEMs, where each technical repeat represents the mean of n≥2 technical replicates. EOC, E. ocellatus; ECAR, E. carinatus; BAS, Bothrops asper, BAR, Bitis arietans; DRUS, Daboia russelii. (B) Neutralization of SVSP venom activity by the serine protease-inhibitor nafamostat. The data is expressed as rates (ΔAbs/time/μg venom) and represents triplicate independent repeats with SEMs, where each technical repeat represents the mean of n≥2 technical replicates. […] Note the different y-axis scales.
SVSP activity was measured using a chromogenic substrate (S-2288, Cambridge Bioscience). […] The samples were pipetted in triplicate into 384-well plates (Greiner) and absorbance at 405 nm was monitored kinetically for ˜30 min on an Omega FLUOstar instrument (BMG Labtech). Given the linearity of the resulting slopes, negative control readings (PBS) were subtracted from each reading and the rate of substrate consumption calculated by measuring the slope between 0 and 5 mins. […]

[5] = test system: normal plasma clotting; test: Normal plasma clotting in the absence of venom; type: biochemical, bovine; conditions: 150 μM, no venom
Protocol: FIG. 14. The serine protease-inhibitor nafamostat inhibits normal plasma clotting. Comparison of normal clotting (i.e. in the absence of venom and inhibitors via recalcification) and clotting in the presence of the generic serine protease-inhibitor nafamostat. […] The anticoagulant effect of this drug is expressed as a percentage of the plasma-only activity.
as §1

[6] = in vivo; cited from earlier work

SMILES	lowest concentration effective / required to fully inhibit SVMP activities ([1]; concentrations tested 150 μM to 150 nM)	IC50 ([1]; range across venoms, 1 μg venom/reaction, read-out: IC50s, inhibition of SVMP activity)	IC50 [2]	survival / protection against venom-induced lethality [3]	inhibition of SVSP activity ([4]; highest doses 150 and 15 μM, irrespective of venom)	IC50 ([4]; range across venoms, 1 μg venom/reaction, read-out: IC50s, inhibition of SVSP activity)	effect on normal plasma clotting [5]	half-life [6]
OCC(S)CS (centres unmarked) [dimercaprol, 2,3-dimercapto-1-propanol]	1.5 µM	20 to 400 nM	150 to 3700 nM					
N=C(N)c1ccc2cc(OC(=O)c3ccc(N=C(N)N)cc3)ccc2c1 [nafamostat]				no evident efficacy	completely inhibiting SVSP activity	120 to 1070 nM	dramatically inhibits plasma coagulation	~8 min
